In the experiment the target is T1, human TAS1R2-I191V/TAS1R3-WT (Homo sapiens, UniProt Q7RTX0+Q8TE23, I191V).
T1 construct: expressed in transfected cells; host or cells: HEK293T-Gα16gust44
T1 sequence (Q8TE23 20-839 I191V): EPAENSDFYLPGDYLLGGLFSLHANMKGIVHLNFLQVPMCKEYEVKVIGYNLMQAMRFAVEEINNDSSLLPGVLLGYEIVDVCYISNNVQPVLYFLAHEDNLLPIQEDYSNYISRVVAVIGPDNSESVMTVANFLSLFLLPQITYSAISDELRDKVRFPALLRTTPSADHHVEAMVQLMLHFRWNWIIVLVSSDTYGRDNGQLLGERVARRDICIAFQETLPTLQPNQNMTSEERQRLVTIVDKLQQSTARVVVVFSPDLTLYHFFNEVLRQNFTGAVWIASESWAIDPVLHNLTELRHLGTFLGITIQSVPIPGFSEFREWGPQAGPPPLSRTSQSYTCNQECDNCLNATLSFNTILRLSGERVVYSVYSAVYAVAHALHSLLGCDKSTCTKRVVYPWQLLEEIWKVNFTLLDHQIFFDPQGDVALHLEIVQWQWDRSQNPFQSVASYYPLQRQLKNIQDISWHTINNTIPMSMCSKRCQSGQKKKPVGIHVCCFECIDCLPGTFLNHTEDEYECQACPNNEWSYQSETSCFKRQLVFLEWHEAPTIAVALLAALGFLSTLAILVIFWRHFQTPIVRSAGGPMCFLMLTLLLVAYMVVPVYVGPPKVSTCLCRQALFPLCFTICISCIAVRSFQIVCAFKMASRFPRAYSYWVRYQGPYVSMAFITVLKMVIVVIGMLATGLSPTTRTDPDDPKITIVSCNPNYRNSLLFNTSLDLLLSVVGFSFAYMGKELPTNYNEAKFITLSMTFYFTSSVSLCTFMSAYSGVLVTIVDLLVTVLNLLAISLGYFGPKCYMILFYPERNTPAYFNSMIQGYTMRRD
T1 sequence (Q7RTX0 21-852): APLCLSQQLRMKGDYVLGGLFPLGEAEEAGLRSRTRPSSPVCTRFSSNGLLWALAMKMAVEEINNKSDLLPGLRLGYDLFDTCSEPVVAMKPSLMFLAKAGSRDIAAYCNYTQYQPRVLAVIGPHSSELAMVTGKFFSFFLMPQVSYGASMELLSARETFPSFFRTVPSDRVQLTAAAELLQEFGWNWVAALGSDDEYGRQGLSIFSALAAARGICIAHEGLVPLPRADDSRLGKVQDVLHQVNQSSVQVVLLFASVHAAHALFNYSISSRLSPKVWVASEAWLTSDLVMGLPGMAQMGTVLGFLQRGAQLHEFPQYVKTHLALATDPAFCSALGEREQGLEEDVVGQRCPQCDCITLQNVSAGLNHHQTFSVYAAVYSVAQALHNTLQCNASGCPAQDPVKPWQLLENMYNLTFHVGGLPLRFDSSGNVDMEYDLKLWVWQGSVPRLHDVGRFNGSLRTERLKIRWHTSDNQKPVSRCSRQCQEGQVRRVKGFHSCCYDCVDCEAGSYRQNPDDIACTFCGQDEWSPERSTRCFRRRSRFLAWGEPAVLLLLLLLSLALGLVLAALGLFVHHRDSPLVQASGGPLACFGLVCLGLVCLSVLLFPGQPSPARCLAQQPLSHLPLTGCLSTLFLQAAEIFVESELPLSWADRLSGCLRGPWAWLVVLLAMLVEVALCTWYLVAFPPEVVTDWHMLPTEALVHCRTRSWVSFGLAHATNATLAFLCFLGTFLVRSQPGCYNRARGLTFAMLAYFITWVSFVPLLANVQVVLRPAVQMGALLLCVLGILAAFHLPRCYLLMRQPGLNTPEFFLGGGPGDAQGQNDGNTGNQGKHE
Description: Calcium mobilisation assay, TAS1R2 variant I191V with TAS1R3-WT. Type of experiment: cell-based. To be noted: for Max ΔF/F0: maximal signal amplitude. From the text:
The coding sequences for TAS1R2 and TAS1R3 were commercially synthesised, and the human codon was optimised for expression in human cells. The coding sequences of human TAS1R2 and TAS1R3 were subcloned and inserted into the mammalian expression vectors pcDNA6/myc-HisA and pcDNA4/myc-HisA (Invitrogen; Thermo Fisher Scientific; Illkirch, France) between the EcoRI and NotI restriction sites, generating the plasmids pcDNA6-TAS1R2 and pcDNA4-TAS1R3, respectively. To increase protein expression in mammalian cells, an upstream start codon was used, which was a sequence called MAX, corresponding to the QBI SP163 element also described in pcDNA4-HisMax (Invitrogen; Thermo Fisher Scientific; Illkirch, France). To measure the expression level of the receptor by immunohistochemistry, we used the FLAG sequence ([…]) in the C-terminal position, which encodes the FLAG tag epitope. SNP variants of TAS1R2 and TAS1R3 were constructed based on […], respectively, using site-directed mutagenesis (Genewiz; Leipzig, Germany).
The HEK293T cells were kindly provided by Jay P. Slack (Givaudan Flavors Corporation; Cincinnati, OH, USA). HEK293T cells stably transfected with Gα16gust44 [43, 67] were seeded in poly-D-lysine-coated clear-bottom black 96-well plates (0.35 × 10^5 cells/well) in high-glucose DMEM supplemented with 2 mM GlutaMAX, 10% dialysed foetal bovine serum with penicillin/streptomycin and G418 (400 μg/mL) at 37 °C and 6.3% CO2 in a humidified atmosphere as previously reported. […] As a negative control, HEK293T cells were mock-transfected with the empty expression vector. After a further 24 h of incubation, the HEK293T cells were washed with C1 buffer (130 mM NaCl, 5 mM KCl, 10 mM HEPES pH 7.4 and 2 mM CaCl2). The 96-well plates containing the cells were then stimulated with sweet-tasting compounds. […] Different concentration ranges were tested depending on the sweet compound injected. The Ca^2+ changes were expressed as fractional changes in fluorescent light intensity: ΔF/F = (F − F0)/F0, where F was the fluorescent light intensity at each point, and F0 was the value of emitted fluorescent light prior to stimulus application. To calculate dose–response relationships, the changes in fluorescence upon stimulus application were averaged, mock-subtracted and baseline-corrected. The dose–response data obtained were adjusted using a 4-parameter logistic equation. The half-maximal effective concentrations (EC50 values) and maximal signal amplitudes were calculated using SigmaPlot software (version 15.0) (Systat Software; San Jose, CA, USA).
For in vitro calcium mobilisation assay performed on hTAS1R2-SNPs, hTAS1R3-SNPs and mTAS1R3-I60T, 6 to 7 concentrations were tested for each sweet compound, plus buffer alone. All concentration–receptor combinations were measured in duplicate, and each experiment was repeated at least 4 times (8 wells/concentration). Results were expressed for each concentration as ΔF/F mean ± SEM and represented as dose–response curves.
A general note: Calcium flux is commonly read through the fluorescence of an indicator in the cells.

No end group written: not given here.

For orientation: EC50 means the concentration needed to bring the measured effect to its halfway point.

With `C=C(C)[C@@H]1CC=C(/C=N/O)CC1` [Perillartine, perillartine], the EC50 worked out at 27.9 ± 0.5 µM, the “R1 = Variant EC50/WT EC50” value came to 1.6 and the “Max ΔF/F0” value was 1.27 ± 0.01.

`O=S(=O)(O)NC1CCCCC1` [Cyclamate, cyclamate]: the half-maximal effective concentration (EC50) was found to be 2020 ± 31 µM.

Take `C=C1C[C@@]23CC[C@H]4[C@@](C)(CCC[C@@]4(C)C(=O)O[C@@H]4O[C@H](CO)[C@@H](O)[C@H](O[C@@H]5O[C@H](CO)[C@@H](O)[C@H](O)[C@H]5O)[C@H]4O[C@@H]4O[C@H](CO)[C@@H](O)[C@H](O)[C@H]4O)[C@@H]2CC[C@]1(O[C@@H]1O[C@H](CO)[C@@H](O)[C@H](O[C@@H]2O[C@H](CO)[C@@H](O)[C@H](O)[C@H]2O)[C@H]1O[C@@H]1O[C@H](CO)[C@@H](O)[C@H](O)[C@H]1O)C3` [Rebaudioside M, rebaudioside M]: the EC50 was determined as 21 ± 0.4 µM, the “R1 = Variant EC50/WT EC50” value was found to be 1.2 and the “Max ΔF/F0” value was determined as 1.10 ± 0.01.

Regarding `OC[C@H]1O[C@H](O[C@]2(CCl)O[C@H](CCl)[C@@H](O)[C@@H]2O)[C@H](O)[C@@H](O)[C@H]1Cl` [Sucralose], the EC50 is 87 ± 7 µM, the “R1 = Variant EC50/WT EC50” value is 1.0 and the “Max ΔF/F0” value is 0.52 ± 0.02.

As for `CC1=CC(=O)NS(=O)(=O)O1` [Acesulfame K, acesulfame K], the EC50 was 492 ± 30 µM, the “R1 = Variant EC50/WT EC50” value is recorded as 0.7 and the “Max ΔF/F0” value was 0.27 ± 0.01.

With “brazzein (QDKCKKVYENYPVSKCQLANQCNYDCKLDKHARSGECFYDEKRNLQCICDYCEY; ends and bridges not checked; cysteine pairing not given here; UniProt P56552 1-54, looked up) [sweet-tasting protein obtained by recombinant production using the yeast Pichia pastoris]”, the “R1 = Variant EC50/WT EC50” value is given as 1.7 and the “Max ΔF/F0” value worked out at 1.12 ± 0.02.

As to thaumatin, the “R1 = Variant EC50/WT EC50” value stood at 1.0 and the “Max ΔF/F0” value worked out at 0.34 ± 0.02.

With `COC(=O)[C@H](Cc1ccccc1)NC(=O)[C@H](CC(=O)O)NCCC(C)(C)C` [Neotame], the EC50 was 0.84 ± 0.08 µM, the “R1 = Variant EC50/WT EC50” value was found to be 1.0 and the “Max ΔF/F0” value came to 0.64 ± 0.02.

For `C[C@H](CC[C@@H](O[C@@H]1O[C@H](CO[C@@H]2O[C@H](CO)[C@@H](O)[C@H](O)[C@H]2O)[C@@H](O)[C@H](O)[C@H]1O[C@@H]1O[C@H](CO)[C@@H](O)[C@H](O)[C@H]1O)C(C)(C)O)[C@H]1CC[C@@]2(C)[C@@H]3CC=C4[C@@H](CC[C@H](O[C@@H]5O[C@H](CO[C@@H]6O[C@H](CO)[C@@H](O)[C@H](O)[C@H]6O)[C@@H](O)[C@H](O)[C@H]5O)C4(C)C)[C@]3(C)[C@H](O)C[C@]12C` [Mogroside V, mogroside V], the EC50 was found to be 19.2 ± 1.7 µM, the “R1 = Variant EC50/WT EC50” value amounted to 1.1 and the “Max ΔF/F0” value is 1.33 ± 0.04.

For the molecule `COc1ccc(CCC(=O)c2c(O)cc(O[C@@H]3O[C@H](CO)[C@@H](O)[C@H](O)[C@H]3O[C@@H]3O[C@@H](C)[C@H](O)[C@@H](O)[C@H]3O)cc2O)cc1O` [NHDC, neohesperidin dihydrochalcone], the EC50 turned out to be 109 ± 4.6 µM, the “R1 = Variant EC50/WT EC50” value was found to be 1.4 and the “Max ΔF/F0” value was 0.73 ± 0.01.

B1: thaumatin (protein)
chain: ATFEIVNRCSYTVWAAASKGDAALDAGGRQLNSGESWTINVEPGTKGGKIWARTDCYFDDSGSGICKTGDCGGLLRCKRFGRPPTTLAEFSLNQYGKDYIDISNIKGFNVPMDFSPTTRGCRGVRCAADIVGQCPAKLKAPGGGCNDACTVFQTSEYCCTTGKCGPTEYSRFFKRLCPDAFSYVLDKPTTVTCPGSSNYRVTFCPTA
modifications: Eight disulfides
notes: sweet-tasting plant protein, E957
Turning to B1, the EC50 was 7.7 ± 0.9 µM.

The values are drawn from PMC11945486, “TAS1R2/TAS1R3 Single-Nucleotide Polymorphisms Affect Sweet Taste Receptor Activation by Sweeteners: The SWEET Project” (Nutrients, 2025).
